Measured values taken from ChEMBL document CHEMBL5724914, “Linking interpersonal differences in gut microbiota composition and drug biotransformation activity” (2024).

What was measured:
[1] = human gut metagenome, 24 h, 2 µM
[2] = (§1) The drug is tested on Z-009 corresponding to pig gut metagenome with ENA study accession number: PRJEB37062 and ENA sample accession number: ERS12561809 for biotransformation under anaerobic condition. The drug concentrations were measured over 9 timepoints collected between 0 and 24 hours of incubation by liquid-chromatography-coupled mass spectrometry (LC–MS); settings: 2 µM
[3] = as §1, with “Z-013” for “Z-009”, “rabbit” for “pig”, “ERS12561813” for “ERS12561809”; settings: 2 µM
[4] = as §1, with “Z-006” for “Z-009”, “mouse” for “pig”, “ERS12561806” for “ERS12561809”; settings: 2 µM
[5] = human gut metagenome, 24 h, 2 µM; remark: listed apart in the source
[6] = as §1, with “Z-021” for “Z-009”, “to” for “to pig gut”, “ERS12561820” for “ERS12561809”; settings: 2 µM
[7] = as §1, with “WLS-006” for “Z-009”, “human” for “pig”, “ERS12561741” for “ERS12561809”; settings: 2 µM
[8] = human gut metagenome, 24 h, 2 µM; remark: listed apart in the source
[9] = human gut metagenome, 24 h, 2 µM; remark: listed apart in the source
[10] = human gut metagenome, 24 h, 2 µM; remark: listed apart in the source
[11] = human gut metagenome, 24 h, 2 µM; remark: listed apart in the source
[12] = as §1, with “Z-002” for “Z-009”, “rabbit” for “pig”, “ERS12561802” for “ERS12561809”; settings: 2 µM
[13] = as §1, with “Z-026” for “Z-009”, “to” for “to pig gut”, “ERS12561825” for “ERS12561809”; settings: 2 µM
[14] = as §1, with “Z-023” for “Z-009”, “to” for “to pig gut”, “ERS12561822” for “ERS12561809”; settings: 2 µM
[15] = as §1, with “Z-005” for “Z-009”, “to” for “to pig gut”, “ERS12561805” for “ERS12561809”; settings: 2 µM
[16] = as §1, with “WLS-038” for “Z-009”, “human” for “pig”, “ERS12561745” for “ERS12561809”; settings: 2 µM
[17] = human gut metagenome, 24 h, 2 µM; remark: listed apart in the source
[18] = as §1, with “Z-030” for “Z-009”, “mouse” for “pig”, “ERS12561829” for “ERS12561809”; settings: 2 µM
[19] = as §1, with “Z-004” for “Z-009”, “to” for “to pig gut”, “ERS12561804” for “ERS12561809”; settings: 2 µM
[20] = human gut metagenome, 24 h, 2 µM; remark: listed apart in the source
Note: call rule not given here.

Bacterial Biotransformation [1]	Bacterial Biotransformation [2]	Bacterial Biotransformation [3]	Bacterial Biotransformation [4]	Bacterial Biotransformation [5]	Bacterial Biotransformation [6]	Bacterial Biotransformation [7]	Bacterial Biotransformation [8]	Bacterial Biotransformation [9]	Bacterial Biotransformation [10]	Bacterial Biotransformation [11]	Bacterial Biotransformation [12]	Bacterial Biotransformation [13]	Bacterial Biotransformation [14]	Bacterial Biotransformation [15]	Bacterial Biotransformation [16]	Bacterial Biotransformation [17]	Bacterial Biotransformation [18]	Bacterial Biotransformation [19]	Bacterial Biotransformation [20]	Compound
Compound NOT metabolized	Compound NOT metabolized	Compound NOT metabolized	Compound NOT metabolized	Compound metabolized	Compound metabolized	Compound NOT metabolized	Compound NOT metabolized	Compound metabolized	Compound metabolized	Compound NOT metabolized	Compound NOT metabolized	Compound NOT metabolized	Compound metabolized	Compound NOT metabolized	Compound NOT metabolized	Compound NOT metabolized	Compound NOT metabolized	Compound NOT metabolized	Compound metabolized	CN1CCC(OC(c2ccccc2)c2ccccc2)CC1
Compound metabolized	Compound NOT metabolized	Compound NOT metabolized	Compound NOT metabolized	Compound metabolized	Compound NOT metabolized	Compound metabolized	–	Compound metabolized	Compound metabolized	Compound metabolized	Compound NOT metabolized	Compound metabolized	Compound metabolized	Compound NOT metabolized	Compound metabolized	Compound metabolized	Compound metabolized	Compound NOT metabolized	Compound NOT metabolized	CC1=C(CC(=O)O)c2cc(F)ccc2/C1=C\c1ccc([S+](C)[O-])cc1 (stereo unspecified)
Compound NOT metabolized	Compound NOT metabolized	Compound NOT metabolized	Compound NOT metabolized	Compound metabolized	Compound NOT metabolized	Compound metabolized	Compound NOT metabolized	Compound metabolized	Compound NOT metabolized	Compound metabolized	Compound metabolized	Compound NOT metabolized	Compound metabolized	Compound NOT metabolized	Compound metabolized	Compound metabolized	Compound NOT metabolized	Compound NOT metabolized	Compound metabolized	CCOC(=O)[C@H](CCc1ccccc1)N[C@@H](C)C(=O)N1Cc2ccccc2C[C@H]1C(=O)O
Compound NOT metabolized	Compound NOT metabolized	Compound NOT metabolized	Compound NOT metabolized	Compound NOT metabolized	Compound NOT metabolized	Compound NOT metabolized	Compound NOT metabolized	Compound NOT metabolized	Compound NOT metabolized	Compound NOT metabolized	Compound NOT metabolized	Compound NOT metabolized	Compound NOT metabolized	Compound NOT metabolized	Compound NOT metabolized	Compound metabolized	Compound NOT metabolized	Compound NOT metabolized	Compound NOT metabolized	CC(C)NCC(O)COc1ccc(CC(N)=O)cc1 (stereo unspecified) [ATENOLOL]
Compound metabolized	Compound NOT metabolized	Compound metabolized	Compound metabolized	Compound metabolized	Compound metabolized	Compound metabolized	Compound NOT metabolized	Compound metabolized	–	Compound NOT metabolized	Compound metabolized	Compound NOT metabolized	Compound metabolized	Compound metabolized	–	Compound metabolized	Compound metabolized	Compound NOT metabolized	Compound metabolized	N#Cc1ccc2[nH]cc(CCCCN3CCN(c4ccc5oc(C(N)=O)cc5c4)CC3)c2c1 [VILAZODONE]

Second part, the compound before the results:

Compound	Bacterial Biotransformation [1]	Bacterial Biotransformation [2]	Bacterial Biotransformation [3]	Bacterial Biotransformation [4]	Bacterial Biotransformation [5]	Bacterial Biotransformation [6]	Bacterial Biotransformation [7]	Bacterial Biotransformation [8]	Bacterial Biotransformation [9]	Bacterial Biotransformation [10]	Bacterial Biotransformation [11]	Bacterial Biotransformation [12]	Bacterial Biotransformation [13]	Bacterial Biotransformation [14]	Bacterial Biotransformation [15]	Bacterial Biotransformation [16]	Bacterial Biotransformation [17]	Bacterial Biotransformation [18]	Bacterial Biotransformation [19]	Bacterial Biotransformation [20]
CCN1CCCC1CNC(=O)c1cc(S(=O)(=O)CC)c(N)cc1OC (stereo unspecified) [AMISULPRIDE]	Compound NOT metabolized	Compound NOT metabolized	Compound NOT metabolized	Compound NOT metabolized	Compound metabolized	Compound NOT metabolized	Compound NOT metabolized	Compound NOT metabolized	Compound NOT metabolized	Compound NOT metabolized	Compound NOT metabolized	Compound metabolized	Compound NOT metabolized	Compound NOT metabolized	Compound NOT metabolized	Compound NOT metabolized	Compound metabolized	Compound NOT metabolized	Compound NOT metabolized	Compound NOT metabolized
O=C1N=C([O-])NC1(c1ccccc1)c1ccccc1.[Na+] [PHENYTOIN SODIUM]	Compound metabolized	Compound NOT metabolized	Compound NOT metabolized	Compound NOT metabolized	Compound metabolized	–	Compound metabolized	Compound NOT metabolized	Compound NOT metabolized	Compound metabolized	Compound NOT metabolized	Compound NOT metabolized	Compound NOT metabolized	Compound NOT metabolized	Compound NOT metabolized	Compound NOT metabolized	Compound metabolized	–	Compound NOT metabolized	Compound NOT metabolized
C[C@]12C=CC(=O)C=C1CC[C@@H]1[C@@H]2C(=O)C[C@@]2(C)[C@H]1CC[C@]2(O)C(=O)CO [PREDNISONE]	Compound metabolized	Compound metabolized	Compound NOT metabolized	Compound metabolized	–	Compound metabolized	Compound metabolized	Compound NOT metabolized	Compound metabolized	Compound metabolized	Compound metabolized	Compound metabolized	Compound metabolized	Compound metabolized	Compound NOT metabolized	Compound metabolized	Compound metabolized	Compound NOT metabolized	Compound metabolized	Compound NOT metabolized
CN(C/C=C/C#CC(C)(C)C)Cc1cccc2ccccc12 [TERBINAFINE]	Compound NOT metabolized	Compound metabolized	Compound NOT metabolized	Compound NOT metabolized	Compound NOT metabolized	Compound NOT metabolized	–	Compound NOT metabolized	Compound NOT metabolized	Compound NOT metabolized	Compound NOT metabolized	Compound NOT metabolized	Compound NOT metabolized	–	Compound NOT metabolized	–	Compound NOT metabolized	Compound NOT metabolized	Compound NOT metabolized	Compound NOT metabolized
